# How the values were obtained:
# [1] = Stability in solution (UV–vis, ESI–MS), metal-free; assay type: physicochemical; conditions: for k, metal-free (rate of decay of the absorbance peak) / t1/2, metal-free / Stability in solution: 50 μM; for Stability in solution: metal-free, HEPES pH 7.4, 37 °C, 5 h
# Experimental: The stability of 1–4 (50 μM) in the absence and presence of CuCl2 (25 μM) was monitored every 10 min using UV–vis for 5 h in buffer ([…], pH 7.4, […]; 1% DMSO) at 37 °C. The resulting spectra were corrected for baseline shifts at 800 nm and the half-life and rate of decay of the absorbance at 250, 385 and 400 nm for 4, [Cu(II)+1], and [Cu(II)+3], respectively, was calculated using the first-order exponential decay function as implemented in Origin 9.1 (OrginLab Corp., Northampton, MA, USA). Additionally, the species present were identified using ESI–MS. Samples containing 1–4 (50 μM) with or without CuCl2 (25 μM) were incubated in ddH2O (1% DMSO) at 37 °C for the selected time points before being freshly frozen using liquid nitrogen and stored at −80 °C until they were thawed immediately before measurement.
# Cu(II)–Aβ40/Aβ42 = assay: Aβ aggregation inhibition/disaggregation experiments (gel/western blot, TEM), Cu(II); assay type: biochemical; conditions: Aβ 25 μM, compound 50 μM, 37 °C, 24 h; gel/western blot and TEM
# Experimental: (§1) The ability of 1–4 to control the aggregation of both metal-free Aβ and metal-Aβ in inhibition (Fig. 2) and disaggregation experiments (Supplementary Fig. 1) was evaluated using the two major Aβ isoforms (Aβ40/Aβ42)[1][2][3][6][16] found in the AD-affected brain. Molecular weight (MW) distributions and morphologies of the resulting Aβ species were determined by gel electrophoresis followed by western blotting (gel/western blot) and transmission electron microscopy (TEM). Generally, under the experimental conditions employed herein, compound-free Aβ samples with and without metal ions assemble into a distribution of large aggregates that are too big to penetrate into the gel matrix, which yields very little smearing in the gel/western blots, but they can be visualized by TEM. The administration of compounds, able to interact with Aβ, inhibit the formation of high MW aggregates, and/or disassemble preformed aggregates, typically generates smaller-sized Aβ species that can enter into the gel and produce a substantial amount of streaking compared with the samples containing Aβ only.
# Before experiments, Aβ40 or Aβ42 was dissolved in ammonium hydroxide (NH4OH; 1% v/v, aq). The resulting solution was aliquoted, lyophilized overnight and stored at −80 °C. A stock solution of Aβ was then prepared by dissolving lyophilized peptide in 1% NH4OH (10 μl) and diluting with ddH2O. The concentration of the solution was determined by measuring the absorbance of the solution at 280 nm (ɛ=1,450 M^–1 cm^–1 for Aβ40; ɛ=1,490 M^–1 cm^–1 for Aβ42). The peptide stock solution was diluted to a final concentration of 25 μM in Chelex-treated buffered solution containing HEPES ([…]; pH 6.6 for Cu(II) samples; pH 7.4 for metal-free and Zn(II) samples) and NaCl ([…]). For the inhibition studies, compounds (final concentration 50 μM, 1% v/v dimethyl sulfoxide (DMSO)) were added to the sample of Aβ (25 μM) in the absence and presence of a metal chloride salt (CuCl2 or ZnCl2; 25, 50, 100 or 125 μM) followed by incubation at 37 °C with constant agitation for 24 h. For the disaggregation studies, Aβ with and without a metal chloride salt was incubated for 24 h at 37 °C with constant agitation to generate preformed Aβ aggregates. The resulting samples were then treated with compounds (50 μM) and incubated with constant agitation for additional 24 h.
# The Aβ samples from in vivo or in vitro experiments were analysed by gel electrophoresis followed by western blotting using an anti-Aβ antibody (6E10)[24][25][27][28][29]. Samples (10 μl) were separated on a 10–20% Tris-tricine gel (Invitrogen, Grand Island, NY, USA). […]
# Zn(II)–Aβ40/Aβ42 = assay: Aβ aggregation inhibition/disaggregation experiments (gel/western blot, TEM), Zn(II); assay type: biochemical; conditions: Aβ 25 μM, compound 50 μM, 37 °C, 24 h; gel/western blot and TEM
# Experimental: as §1
# Before experiments, Aβ40 or Aβ42 was dissolved in ammonium hydroxide (NH4OH; 1% v/v, aq). The resulting solution was aliquoted, lyophilized overnight and stored at −80 °C. A stock solution of Aβ was then prepared by dissolving lyophilized peptide in 1% NH4OH (10 μl) and diluting with ddH2O. The concentration of the solution was determined by measuring the absorbance of the solution at 280 nm (ɛ=1,450 M^–1 cm^–1 for Aβ40; ɛ=1,490 M^–1 cm^–1 for Aβ42). The peptide stock solution was diluted to a final concentration of 25 μM in Chelex-treated buffered solution containing HEPES ([…]; pH 6.6 for Cu(II) samples; pH 7.4 for metal-free and Zn(II) samples) and NaCl (150 μM). […]
# The Aβ samples from in vivo or in vitro experiments were analysed by gel electrophoresis followed by western blotting using an anti-Aβ antibody (6E10)[24][25][27][28][29]. […]
# [2] = HEPES pH 7.4, 150 μM NaCl, 37 °C
# [3] = HEPES pH 7.4, 150 μM NaCl, 37 °C, absorbance peak decay
SMILES,"k, metal-free (rate of decay of the absorbance peak) [1, 2]","t1/2, metal-free [1, 3]",Stability in solution [1],Modulation of Cu(II)-induced Aβ aggregation (Cu(II)–Aβ40/Aβ42),"half-life at 50 μM ([1]; HEPES buffer, pH 7.4, 50 μM, HEPES pH 7.4, 150 μM NaCl, 37 °C, absorbance peak decay, read-out: t1/2, metal-free) [min]",Modulation of Zn(II)-induced Aβ aggregation (Zn(II)–Aβ40/Aβ42)
"COc1cc(NCc2ccccn2)cc(OC)c1 [compound 2, 3,5-dimethoxy-N-(pyridin-2-ylmethyl)aniline]",too slow to accurately measure the rate,No noticeable spectral changes were observed over 5 h,stable over 5 h,modulating activity at higher Cu(II) concentrations,,
"CN(C)c1ccc(NCc2ccc[nH]2)cc1 [compound 4, N^1-((1H-pyrrol-2-yl)methyl)-N^4,N^4-dimethylbenzene-1,4-diamine]",0.016 ± 0.004 min⁻¹,~40 min,unstable,redirect both Cu(II)- and Zn(II)-induced Aβ aggregation,43 ± 5,redirect both Cu(II)- and Zn(II)-induced Aβ aggregation
"CN(C)c1ccc(NCc2ccc3ccccc3n2)cc1 [compound 3, N^1,N^1-dimethyl-N^4-(quinolin-2-ylmethyl)benzene-1,4-diamine]",too slow to accurately measure the rate,No noticeable spectral changes were observed over 5 h,changes in its Ultraviolet-Visible (UV-vis) spectra after 5 h of incubation occurring at a very slow rate,modulates Aβ aggregation involved by both Cu(II) and Zn(II),,modulates Aβ aggregation involved by both Cu(II) and Zn(II)
"Nc1ccc(NCc2ccccn2)cc1 [compound 1, N^1-(pyridin-2-ylmethyl)benzene-1,4-diamine]",too slow to accurately measure the rate,No noticeable spectral changes were observed over 5 h,stable over 5 h,redirect Cu(II)-promoted Aβ40 and Aβ42 aggregation,,did not show any noticeable activity

# From article PMC5065625, “Structure-mechanism-based engineering of chemical regulators targeting distinct pathological factors in Alzheimer's disease” (Nature Communications, 2016)
